Measured values: patent US5834318A, “Screening of combinatorial peptide libraries for selection of peptide ligand useful in affinity purification of target proteins” (Bayer Corporation, priority 1995, dated 1998)
Where no end group is shown, it is not given here.

How the values were obtained:
Factor IX zymogen [1] = molecular target: T1, Factor IX zymogen (Homo sapiens, UniProt P00740); assay: Plasma-derived Factor IX affinity chromatography; type: binding; design: A 1.0 ml injection of human citrated plasma was contacted with an acetyl-YANKGY-TSK column; from tissue; host or cells: human citrated plasma; details: 1.0 ml human citrated plasma
Protocol: (§1) Affinity Purification of Target Protein Affinity purification of target protein was used to assess the ability to purify proteins with the peptide sequences identified as being specific. […] The deprotected peptide-resin was dry packed into a blank column as described above and washed with 20 column volumes of 20% methanol/water, then 10 column volumes of Buffer A, and assayed by sequential 1.0 mL injections of 1) Buffer A blank, 2) 0.5% HSA, and 3) target protein in 0.5% HSA. Non-specifically bound proteins were washed off the column in a step gradient of 1.0M NaCl for two column volumes, and the target protein was eluted from the column in a weak acid solution.
Plasma-Derived Factor IX Affinity Chromatography The relevance of this library-derived peptide ligand is to purify human Factor IX zymogen from unpurified human plasma. A 1.0 ml injection of human citrated plasma was contacted with an acetyl-YANKGY-TSK column in the manner taught in the above example. Flow through and acid peaks were collected on ice and immediately assayed for total protein, SDS-PAGE and Western blot analyses. […] Samples were normalized to total protein as described before. There are numerous protein bands in the starting material, the predominant being albumin. The Factor IX band is not visible in any fraction in the Commassie stained gel. […] With one pass over the YANKGY-TSK affinity column, analyzing total protein and by Western blot, the approximate purification was 200 fold from plasma.

streptavidin = streptavidin (Streptomyces avidinii, UniProt P22629); details: well known in the art; cited from earlier work
Factor IX zymogen [2] = molecular target: T1, Factor IX zymogen; assay: Two color peptide library immunostaining chromatography of hexamer library; type: binding; design: purchased Enzyme Research Labs; South Bend, Ind; details: 6 beads isolated from two independent analyses
Protocol: (§2) HPLC Library Immuno-Assays To differentiate between detecting reagent-binding and target-binding peptide-resin beads, we developed a two color peptide library staining chromatography technique. FIG. 1 is a schematic of the preferred embodiment of the technique. All assays were performed on an Ultrafast Microprotein Analyzer in a 2.1 mm I.D.×150mm long stainless steel column (volume=520 μL) at 37° C. Dry library resin was packed into the column by vacuum, then the column was attached to the detector flow cell and washed with 20 column volumes of 20% methanol/water, 5 column volumes of 100% Buffer A (10 mM HEPES, 100 mM NaCl, 2.5 mM CaCl2, 20 mg/mL D-mannitol; all from Sigma Chemical Co.; St. Louis, Mo.), then 5 column volumes of 50% Buffer B (Buffer A with 1.0M NaCl) to clean the resin. The complete assay comprised of seven chromatography injection programs sequentially linked and executed as a batch (EXChrom Chromatography Data System, Scientific Software, Inc.; San Ramon, Calif.). Each injection program was 90 min long. At the start of each injection program, a 1.0 mL sample loop of reagent was injected at 200 μL/min for 3.5 min, then allowed to perfuse the column at 5 μL/min for 50 min before the flow increased to 400/μL/min for the duration of the run. At 60-75 min, a salt gradient from 0.1M to 1.0M NaCl eluted non-specific binding proteins. […]

[3] = molecular target: T2, human serum albumin (HSA) (Homo sapiens, UniProt P02768); assay: Binding of carrier protein to peptide-resin column; details: 0.5% HSA; eluted by the salt wash, no peak during acid elution
T2 construct: purchased Miles, Inc., Clayton, N.C
Protocol: as §1
(§3) Factor IX/Albumin Affinity Purification The library-derived peptide identified above binds and purifies a mixture of a commercially available, highly purified Factor IX zymogen in a solution of human serum albumin. […] This peptide-resin was tested for its ability to bind Factor IX. […] However, this was eluted by the salt wash as evidenced by the absence of a peak during the acid elution. In contrast, when Factor IX was added to the HSA, there was a distinct peak eluted by the acid.

Factor IX zymogen [4] = molecular target: T1, Factor IX zymogen; assay: Factor IX/albumin affinity purification on peptide-resin column; type: binding; design: purchased Enzyme Research Labs; South Bend, Ind
Protocol: as §1, §3
A direct correlation was seen between the acid peak area and the amount of Factor IX injected. […] Aliquots of fractions taken from this run were assayed for Factor IX detection by ELISA (data not shown). […] Factor IX may be partially denatured during the acid elution which could account for the lack of full recovery based on ELISA results. Indeed, controls of adding acid to Factor IX prior to analysis in the ELISA do show a 40 to 50% decrease in the ELISA signal. The remainder of the fractions were precipitated in cold (-20° C.) acetone and analyzed by reducing SDS-PAGE, normalizing sample to total protein.

RNase S protein = molecular target: T3, RNase S protein (Bos taurus, UniProt P61823); assay: HPLC affinity chromatography validation on peptide-resin; type: binding; details: 42 nmoles RNase S protein injected; 2 % acetic acid wash, peak at 22 min
T3 sequence (P61823 47-150 limits assumed): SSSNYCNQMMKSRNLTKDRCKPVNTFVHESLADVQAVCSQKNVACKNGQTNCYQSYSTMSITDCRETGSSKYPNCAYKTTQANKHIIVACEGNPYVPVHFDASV
Protocol: as §1
Ribonuclease S Protein Affinity Chromatography In this embodiment the HPLC affinity methodology is validated by the previously described RNase S protein/YNFEVL peptide system. Peptide synthesis was performed as taught in the previous section. […] 42 nmoles of RNase S protein was injected in a 1.0 mL volume onto the column at 200 μL/min for 3 min. The flow was decreased to 5 μL/min for 5 min to perfuse the column, then increased to 400 μL/min to wash off the unbound protein. At 13 min, an injection of 1.0 mL Buffer A with 1.0M NaCl eluted non-specific binding proteins, then the column was returned to 0.1M NaCl until 19 min when a steep gradient to 2 % acetic acid in water and a flow of 800 μL/min began. […]

[5] = molecular target: T4, Ribonuclease S (RNase S) protein (Bos taurus, UniProt P61823); assay: Two color peptide library immunostaining chromatography (HPLC library immunoassay), validation; type: binding; details: peptide-resin diluted 1:20 w/w with TSK-Blank
T4 sequence (P61823 47-150 limits assumed): T3 sequence (P61823 47-150 limits assumed)
Protocol: as §2

T1 sequence (P00740 29-461 limits assumed): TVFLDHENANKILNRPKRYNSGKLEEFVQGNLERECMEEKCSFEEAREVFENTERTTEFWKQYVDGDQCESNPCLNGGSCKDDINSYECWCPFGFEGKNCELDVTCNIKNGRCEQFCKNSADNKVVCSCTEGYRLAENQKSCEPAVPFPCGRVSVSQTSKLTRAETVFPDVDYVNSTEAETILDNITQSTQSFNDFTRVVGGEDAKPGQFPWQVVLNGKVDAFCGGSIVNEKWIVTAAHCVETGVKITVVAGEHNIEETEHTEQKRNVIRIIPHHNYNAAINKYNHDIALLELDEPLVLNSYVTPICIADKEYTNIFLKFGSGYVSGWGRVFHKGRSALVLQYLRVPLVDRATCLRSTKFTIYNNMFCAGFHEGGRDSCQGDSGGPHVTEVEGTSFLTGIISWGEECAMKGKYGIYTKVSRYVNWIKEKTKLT
Chain of streptavidin (P22629 25-183, species assumed): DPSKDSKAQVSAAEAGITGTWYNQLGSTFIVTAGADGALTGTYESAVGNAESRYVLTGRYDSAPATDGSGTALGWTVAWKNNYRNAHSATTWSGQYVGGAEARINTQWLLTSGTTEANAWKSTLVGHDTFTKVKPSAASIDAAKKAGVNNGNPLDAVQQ
T2 sequence (P02768 25-609): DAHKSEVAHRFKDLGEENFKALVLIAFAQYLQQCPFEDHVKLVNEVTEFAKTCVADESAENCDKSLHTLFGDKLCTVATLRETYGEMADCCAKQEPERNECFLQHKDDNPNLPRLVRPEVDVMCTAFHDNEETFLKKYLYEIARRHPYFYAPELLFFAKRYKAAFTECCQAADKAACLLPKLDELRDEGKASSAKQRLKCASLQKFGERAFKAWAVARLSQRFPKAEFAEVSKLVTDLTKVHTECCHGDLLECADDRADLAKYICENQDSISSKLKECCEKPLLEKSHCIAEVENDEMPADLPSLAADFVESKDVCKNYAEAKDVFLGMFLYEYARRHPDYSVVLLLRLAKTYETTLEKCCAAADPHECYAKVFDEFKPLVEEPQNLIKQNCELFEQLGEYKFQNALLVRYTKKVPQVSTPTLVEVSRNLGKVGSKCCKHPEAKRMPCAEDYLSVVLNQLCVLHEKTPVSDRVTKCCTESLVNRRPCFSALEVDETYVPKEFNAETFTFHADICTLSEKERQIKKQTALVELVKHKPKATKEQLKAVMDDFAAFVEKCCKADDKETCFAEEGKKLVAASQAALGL

Ac-YANKGY [acetyl-YANKGY-TSK]
Factor IX in acid peak by Western blot (Factor IX zymogen [1]): a very large band in the acid peak | Factor IX in flow through by Western blot (Factor IX zymogen [1]): no Factor IX in the flow through

HPQ
binding to streptavidin (streptavidin): will bind streptavidin

YANKGY [YANKGY-TSK]
bead staining in library immunoassay (red = target specific) (Factor IX zymogen [2]): red bead | HSA binding to column [3]: bound to the column to a small extent | Factor IX detected in NaCl peak by ELISA, % of amount injected (Factor IX zymogen [4]; 220 μg Factor IX in HSA): 17% | Factor IX detected in acid peak by ELISA, % of amount injected (Factor IX zymogen [4]; 220 μg Factor IX in HSA): 25% | Factor IX detected in flow through peak by ELISA (Factor IX zymogen [4]; 220 μg Factor IX in HSA): No Factor IX was detected | Factor IX in NaCl wash and acid peak by Western blot (Factor IX zymogen [4]; 220 μg Factor IX in HSA): dark bands corresponding to Factor IX | Factor IX in flow-through fractions by Western blot (Factor IX zymogen [4]; 220 μg Factor IX in HSA): no detectable Factor IX | binding of Factor IX to peptide-resin (Factor IX zymogen [4]; Factor IX in 0.5% HSA, acid elution): does bind Factor IX | approximate purification of Factor IX from plasma (Factor IX zymogen [1]; one pass, by total protein and Western blot): ~200 fold

YNFEVL [YNFEVL-TSK]
elution of bound RNase S protein (RNase S protein): target protein eluted in the acid wash | frequency of dark blue beads (non-specific or immunoreagent-specific interactions) [5]: less than 0.01% | frequency of red beads (target protein interacting with peptide-resin beads) ([5]; RNase S protein in HSA carrier): 5%

YNYFNQ
bead staining in library immunoassay (red = target specific) (Factor IX zymogen [2]): red bead
